Several values for one entry are separate records, joined by “and”; a condition that tells them apart may be missing. Equal entries are not always repeated. Where two headings read alike, the source gives them in different places.
Columns and labels:
[1] = molecular target: HSP90 pools in JNPL3 (AD transgenic) mouse brain lysate; experiment: Fluorescence polarization (FP) competitive binding, cy3B-GM; conditions: read-out: FP relative affinity
[2] = for PAMPA_BBB: PAMPA; for PAMPA-BBB: pH 7.4
PAMPA-BBB permeability = conditions: for PAMPA_BBB: Supplementary Table 6; for Papp at 16 h, 50 μM: pig, PAMPA, pH 7.4
in vitro = conditions: PAMPA, pH 7.4
[3] = Pharmacokinetic studies in mice (LC-MS/MS); format: in vivo, B6D2F1 mice; set-up: Plasma level: unit: uM; conditions: individual animals
Protocol: Blood and brain tissue were collected following euthanasia at the scheduled time points of 5, 30 min, 1, 4, and 8 h following iv dosing and of 30 min, 1, 4, and 8 h following po dosing. Brain samples were immediately flash frozen in liquid nitrogen following collection and stored at −80 °C until analysis. Blood samples were collected into an EDTA tube by heart puncture and centrifuged at 17,000×g for 5 min at 4 °C to separate the plasma and immediately frozen on dry ice and stored at −80 °C until analysis. […] This was homogenized, extracted with methylene chloride, and evaporated on a GeneVac. […] Drug concentration (μM) in the brain was then modified to account for an average water space of 0.8 mL g^−1.

[4] = 10 µM PU-HZ151, 60 min
Protocol: PU-HZ151 (1 and 10 µM) was incubated with human, CD-1 mouse, Sprague Dawley rat, and beagle dog liver microsomes (0.5 mg protein/ml) and appropriate cofactors (2.5 mM NADPH and 3.3 mM MgCl2) in 100 mM phosphate buffer, pH 7.4, in a 37 °C shaking water bath. The incubation contained a final organic solvent concentration of 0.1% DMSO. Reactions were started with the addition of NADPH/magnesium chloride mix and stopped by removing 100 µL aliquots at selected time points (15, 30, and 60 min) and mixing with 200 µl of acetonitrile containing 100 ng/ml haloperidol (internal standard). […] Experimental controls consisted of: a) incubation with 1 or 5 µM propranolol as a positive control for metabolism, and b) incubation of 1 and 10 µM PU-HZ151 with heat-inactivated microsomes (0.5 mg protein mL^−1) for 0 and 60 min. All samples were assayed in duplicate. To determine metabolic stability of PU-HZ151, the percent remaining at each time point was calculated by dividing the peak area ratio of PU-HZ151 /internal standard at each time point by the mean peak area ratio at 0 min, multiplied by 100.
In order to detect and characterize metabolites of PU-HZ151 formed in selected microsomal incubation samples, the following procedures were used to prepare the samples: (1) microsomal incubation samples generated in the metabolic stability experiments (1 and 10 µM PU-HZ151, duplicate replicates per timepoint) were initially processed by addition of 2 parts acetonitrile containing the internal standard haloperidol, to 1 part sample, followed by vortexing, centrifugation, and transfer of the supernatant to a 1.5 mL microcentrifuge tube. Samples were stored at −80 °C prior to analysis for metabolites. (2) Samples were thawed to room temperature, vortexed, centrifuged, and a volume of the supernatant diluted 1:1 with 5% acetonitrile, to reduce the percent acetonitrile in the final sample. Samples were then transferred to HPLC vials with glass inserts for subsequent LC-MS analysis.
Samples were analyzed by LC-MS using positive-ion electrospray ionization and reverse-phase chromatography in full-scan mode with MS/MS product-ion spectra generated for detected metabolite masses. This was performed using the MS2 scan mode of the G6410B mass spectrometer to produce MS/MS product-ion spectra for masses detected at sufficient intensities. Chromatography was performed using a ZORBAX Eclipse XDB-C18 4.6 × 50 mm, 5 µm, column, with gradient elution at 1 mL min^−1. Mobile phase was comprised of A = MilliQ Water with 0.1% formic acid, B = acetonitrile.

[5] = displacement of cy3B-GM, 24 h, 4 °C, mean±SD, n=3

Compound | EC50 [1, 5] [nM] | PAMPA_BBB [2] | PAMPA-BBB [2] | also measured
CC(C)NCCCn1c(Sc2cc3c(cc2Br)OCO3)nc2c(N)ncnc21 [Compound 3] | 122 ± 7 | – | – | –
CC(C)NCCCn1c(Sc2cc3c(cc2C#N)OCO3)nc2c(N)ncnc21 [Compound 5] | 285 ± 13 | – | – | –
CC(=O)c1cc2c(cc1Sc1nc3c(N)ncnc3n1CCCNC(C)C)OCO2 [Compound 6] | 103 ± 7 | – | – | –
C=Cc1cc2c(cc1Sc1nc3c(N)ncnc3n1CCCNC(C)C)OCO2 [Compound 7] | 213 ± 7 | 6.1±0.1 | 6.1±0.1 10-6 cms-1 | –
C=CCc1cc2c(cc1Sc1nc3c(N)ncnc3n1CCCNC(C)C)OCO2 [Compound 8] | 122 ± 4 | 6.7±0.7 | 6.7±0.7 10-6 cms-1 | –
CC(C)NCCCn1c(Sc2cc3c(cc2-c2ccccc2)OCO3)nc2c(N)ncnc21 [Compound 9] | 270 ± 10 | 9.9±0.5 | 9.9±0.5 10-6 cms-1 | –
CC(C)NCCCn1c(Sc2cc3c(cc2-c2ccc(Br)cc2)OCO3)nc2c(N)ncnc21 [Compound 10] | 732 ± 13 | – | – | PAMPA_BBB (PAMPA-BBB permeability): 11.5±0.4; Papp at 16 h, 50 μM (in vitro): 11.5 ± 0.4 ×10⁻⁶ cm/s
CC(C)NCCCn1c(Sc2cc3c(cc2-c2ccc(C(C)(C)C)cc2)OCO3)nc2c(N)ncnc21 [Compound 11] | 2600 | 12.5±0.6 | 12.5±0.6 10-6 cms-1 | –
CC(C)NCCCn1c(Sc2cc3c(cc2-c2ccc(N(C)C)cc2)OCO3)nc2c(N)ncnc21 [Compound 12] | 1390 | 9.2±0.3 | 9.2±0.3 10-6 cms-1 | –
CC(C)NCCCn1c(Cc2cc(I)c3c(c2)OCO3)nc2c(N)nc(F)nc21 [Compound 17] | 85 ± 10 | – | – | –
CC(C)NCCCn1c(Cc2cc(Br)c3c(c2)OCO3)nc2c(N)nc(F)nc21 [Compound 18] | 191 ± 6 | – | – | –
CC(C)NCCCn1c(Cc2cc3c(cc2C#N)OCO3)nc2c(N)nc(F)nc21 [Compound 20] | 219 ± 19 | – | – | –
CCc1cc2c(cc1Cc1nc3c(N)nc(F)nc3n1CCCNC(C)C)OCO2 [Compound 21] | 813 ± 56 | – | – | PAMPA_BBB (PAMPA-BBB permeability): 5.9±0.6; Papp at 16 h, 50 μM (in vitro): 5.9 ± 0.6 ×10⁻⁶ cm/s
C=Cc1cc2c(cc1Cc1nc3c(N)nc(F)nc3n1CCCNC(C)C)OCO2 [Compound 22] | 146 ± 9 | – | – | PAMPA_BBB (PAMPA-BBB permeability): 5.6±0.2; Papp at 16 h, 50 μM (in vitro): 5.6 ± 0.2 ×10⁻⁶ cm/s
C=CCc1cc2c(cc1Cc1nc3c(N)nc(F)nc3n1CCCNC(C)C)OCO2 [Compound 23] | > 5000 | – | – | PAMPA_BBB (PAMPA-BBB permeability): 4.6±0.6; Papp at 16 h, 50 μM (in vitro): 4.6 ± 0.6 ×10⁻⁶ cm/s
CC(C)NCCCn1c(Sc2cc3c(cc2I)OCCO3)nc2c(N)ncnc21 [Compound 28] | 34.5 ± 1.7 | – | – | PAMPA_BBB (PAMPA-BBB permeability): 6.6±0.6; Papp at 16 h, 50 μM (in vitro): 6.6 ± 0.6 ×10⁻⁶ cm/s
CC(C)NCCCn1c(Sc2cc3c(cc2I)OCCCO3)nc2c(N)ncnc21 [Compound 35] | 232 ± 10 | – | – | –
Nc1ncnc2c1nc(Sc1cc3c(cc1I)OCC3)n2CCCBr [Compound 40] | 8 ± 0.4 | – | – | PAMPA_BBB (PAMPA-BBB permeability): 7.7±0.8; Papp at 16 h, 50 μM (in vitro): 7.7 ± 0.8 ×10⁻⁶ cm/s
CC(C)NCCCn1c(Sc2cc3c(cc2I)CCC3)nc2c(N)ncnc21 [Compound 53] | 4.5 ± 0.5 | – | – | PAMPA_BBB (PAMPA-BBB permeability): 15.1±0.7; Papp at 16 h, 50 μM (PAMPA-BBB permeability): 15.1 ×10⁻⁶ cm/s
CC(C)NCCCn1c(Sc2cc3ccccc3cc2I)nc2c(N)ncnc21 [Compound 58] | 97 ± 3 | 10.8±0.2 | 10.8±0.2 10-6 cms-1 | –

Compound | EC50 [1, 5] [nM] | PAMPA_BBB [2] | PAMPA-BBB [2] | also measured
CC(C)(C)NCCCn1c(Cc2cc3c(cc2I)OCO3)nc2c(N)nc(F)nc21 [Compound 59] | 12.7 ± 1.6 | – | – | PAMPA_BBB (PAMPA-BBB permeability): 13.3±1.4; Papp at 16 h, 50 μM (PAMPA-BBB permeability): 13.3 ×10⁻⁶ cm/s
CC(C)N(C)CCCn1c(Cc2cc3c(cc2I)OCO3)nc2c(N)nc(F)nc21 [Compound 60] | 39 ± 2 | 5.8±1.3 | 5.8±1.3 10-6 cms-1 | –
CCN(CCCn1c(Cc2cc3c(cc2I)OCO3)nc2c(N)nc(F)nc21)C(C)C [Compound 61] | 30 ± 13 | 7.5±0.2 | 7.5±0.2 10-6 cms-1 | –
CCN(C)CCCn1c(Cc2cc3c(cc2I)OCO3)nc2c(N)nc(F)nc21 [Compound 62] | 45 ± 19 | 7.5±0.1 | 7.5±0.1 10-6 cms-1 | –
CCCN(CCCn1c(Cc2cc3c(cc2I)OCO3)nc2c(N)nc(F)nc21)CC1CC1 [Compound 63] | 43 ± 4 | 8.4±2.1 | 8.4±2.1 10-6 cms-1 | –
C#CCN(C)CCCn1c(Cc2cc3c(cc2I)OCO3)nc2c(N)nc(F)nc21 [Compound 64] | 30 ± 6 | – | – | PAMPA_BBB (PAMPA-BBB permeability): 11.1±0.1; Papp at 16 h, 50 μM (PAMPA-BBB permeability): 11.1 ×10⁻⁶ cm/s
C=CCN(C)CCCn1c(Cc2cc3c(cc2I)OCO3)nc2c(N)nc(F)nc21 [Compound 65] | 44 ± 4 | 11.3±1.9 | 11.3±1.9 10-6 cms-1 | –
CC1CN1CCCn1c(Cc2cc3c(cc2I)OCO3)nc2c(N)nc(F)nc21 (centres unmarked) [Compound 66] | – | 5.8±1.5 | 5.8±1.5 10-6 cms-1 | EC50 [1]: 105 ± 5 nM
Nc1nc(F)nc2c1nc(Cc1cc3c(cc1I)OCO3)n2CCCN1CCCCC1 [Compound 67] | 112 ± 6 | – | – | PAMPA_BBB (PAMPA-BBB permeability): 6.9±0.2; Papp at 16 h, 50 μM (in vitro): 6.9 ± 0.2 ×10⁻⁶ cm/s
Nc1nc(F)nc2c1nc(Cc1cc3c(cc1I)OCO3)n2CCCN1CCOCC1 [Compound 68] | – | 6.3±1.1 | 6.3±1.1 10-6 cms-1 | EC50 [1]: 202 ± 7 nM
CC(C)N(CCO)CCCn1c(Cc2cc3c(cc2I)OCO3)nc2c(N)nc(F)nc21 [Compound 69] | – | 1.1±0.1 | 1.1±0.1 10-6 cms-1 | EC50 [1]: 61 ± 2 nM
Nc1nc(F)nc2c1nc(Cc1cc3c(cc1I)OCO3)n2CCCN(CCO)C1CCCCC1 [Compound 70] | 24 ± 2 | 8.5±0.1 | 8.5±0.1 10-6 cms-1 | –
Nc1nc(F)nc2c1nc(Cc1cc3c(cc1I)OCO3)n2CCCN1CCN(CCO)CC1 [Compound 71] | – | 4.7±0.5 | 4.7±0.5 10-6 cms-1 | EC50 [1]: 200 ± 5 nM
C[N+](C)(C)CCCn1c(Cc2cc3c(cc2I)OCO3)nc2c(N)nc(F)nc21 [Compound 72] | 155 ± 5 | – | – | PAMPA_BBB (PAMPA-BBB permeability): 1.3±0.1
CC(C)CNCCn1c(Sc2cc3c(cc2I)OCO3)nc2c(N)ncnc21 [Compound 84] | 14 ± 2 | 8.9±0.5 | 8.9±0.5 10-6 cms-1 | –
CC(C)CNCCn1c(Sc2cc3c(cc2I)CCO3)nc2c(N)ncnc21 [Compound 86] | 5.5 ± 0.6 | 9.3±0.2 | 9.3±0.2 10-6 cms-1 | –
NCCn1c(Sc2cc3c(cc2I)OCO3)nc2c(N)ncnc21 [Compound M1] | – | – | – | Brain level ([3]; time 5 min): 0; Brain level ([3]; time 0.5 h): 0; Brain level ([3]; time 1 h): 0; Brain level ([3]; time 4 h): 0; Brain level ([3]; time 8 h): 0; Plasma level ([3]; time 5 min): 0; Plasma level ([3]; time 0.5 h): 0; Plasma level ([3]; time 1 h): 0; Plasma level ([3]; time 4 h): 0; Plasma level ([3]; time 8 h): 0; % Peak area of metabolite ([4]; replicate 1): 53.0%; % Peak area of metabolite ([4]; replicate 2): 59.1%
CC(C)(C)CNCCn1c(Sc2cc(O)c(O)cc2I)nc2c(N)ncnc21 [Compound M2] | – | – | – | Brain level ([3]; time 5 min): 0 (3×) and 0.75 and 0.71; Brain level ([3]; time 0.5 h): 0.02 and 0.49 and 0 (2×); Brain level ([3]; time 1 h): 0 (3×) and 0.04; Brain level ([3]; time 4 h): 0; Brain level ([3]; time 8 h): 0; Plasma level ([3]; time 5 min): 0.04 and 0 (4×); Plasma level ([3]; time 0.5 h): 0.02 and 0 (3×); Plasma level ([3]; time 1 h): 0 (3×) and 0.03; Plasma level ([3]; time 4 h): 0; Plasma level ([3]; time 8 h): 0; % Peak area of metabolite ([4]; replicate 1): 13.0%; % Peak area of metabolite ([4]; replicate 2): 9.0%
NCCn1c(Sc2cc(O)c(O)cc2I)nc2c(N)ncnc21 [Compound M5] | – | – | – | % Peak area of metabolite ([4]; replicate 1): 2.5%; % Peak area of metabolite ([4]; replicate 2): 2.9%

— PMC8333062, “Chemical tools for epichaperome-mediated interactome dysfunctions of the central nervous system” (Nature Communications, 2021)
